Assay [1] has as its system meibomian glands. As to the kind of experiment: Meibomian gland silhouette and area, dry eye model by systemic erlotinib (Example 3). The assay is classed as in vivo, mice. The settings on record: 0.003% (w/v) apocynin eye drop, 2 weeks after start of instillation. The procedure: After acclimating male C57BL6 mice (7 weeks old) to the experimental environment, those with almost uniform body weight values and no eye abnormalities were divided into the following 3 groups (n=4). • 7 weeks old/normal (non-dry eye group) • 7 weeks old/dry eye model+control (solvent eye drop) group • 7 weeks old/dry eye model+apocynin eye drop group The dry eye model was prepared by dissolving erlotinib at a concentration of 5 mg/ml in 0.5% methylcellulose solution and administering it by intraperitoneal injection at a concentration of 50 mg/kg/day daily from the start of the study. The solvent 0.5% methylcellulose solution was similarly administered to the normal non-administration group. After one week of administration of erlotinib, the control group received PBS alone, and the test group received a solution of 0.003% (w/v) apocynin suspended in PBS twice a day at both eyes with 3 μL each. One week after the start of instillation, 1 μL of 0.1% sodium fluorescein solution was instilled into each of both eyes under isoflurane anesthesia, and the BUT test was performed under a blue filter using a slit lamp (Kowa Co., Ltd., SL-17) (FIG. 5). […] In addition, the image analysis software ImageJ was used to quantify the area of the meibomian gland silhouette image of the upper eyelid image (FIG. 7).

For assay [2], the system named is dry eye model. As to the kind of experiment: Schirmer test (tear volume), 0.2% benzalkonium chloride dry eye model, Comparative Study 2 (Example 5). In kind it is in vivo, mice. The settings on record: 2 days after start, compared to hyaluronic acid and diquafosol sodium groups, FIG. 10. The text has this: After acclimating male C57BL6 mice (7 weeks old) to the experimental environment, those with almost uniform weight values and no eye abnormalities were divided into the following groups (n=3 to 4). • 7 weeks old/normal (non-dry eye group) • 7 weeks old/dry eye model+control (solvent eye drop) group • 7 weeks old/dry eye model+0.003% (w/v) apocynin eye drop group • 7 weeks old/dry eye model+0.03% (w/v) apocynin eye drop group • 7 weeks old/dry eye model+3% diquafosol sodium eye drop group • 7 weeks old/dry eye model+0.5% (w/v) hyaluronic acid eye drop group A dry eye model was created by instilling 3 μL of the 0.2% benzalkonium chloride solution into each of both eyes twice a day for 8 days. Then, the control group received PBS alone, and the test group received 0.003% (w/v), 0.03% (w/v) apocynin and 0.5% (w/v) hyaluronic acid in PBS. The 3% diquafosol sodium eye drop was instilled into each of both eyes at 3 μL, twice a day for 9 days. Two days after the start of instillation of the comparative test drug, the Schirmer test was performed to evaluate the tear volume.

Assay [3] deals with dry eye model. As to the kind of experiment: Tear film breakup time (BUT) test, dry eye model by systemic (intraperitoneal) erlotinib (Example 3). The assay is classed as in vivo, mice. The settings on record: 0.003% (w/v) apocynin in PBS, 3 μL twice a day, one week after start; erlotinib 50 mg/kg/day i.p. model; FIG. 5. The procedure:
After acclimating male C57BL6 mice (7 weeks old) to the experimental environment, those with almost uniform body weight values and no eye abnormalities were divided into the following 3 groups (n=4). • 7 weeks old/normal (non-dry eye group) • 7 weeks old/dry eye model+control (solvent eye drop) group • 7 weeks old/dry eye model+apocynin eye drop group The dry eye model was prepared by dissolving erlotinib at a concentration of 5 mg/ml in 0.5% methylcellulose solution and administering it by intraperitoneal injection at a concentration of 50 mg/kg/day daily from the start of the study. The solvent 0.5% methylcellulose solution was similarly administered to the normal non-administration group. After one week of administration of erlotinib, the control group received PBS alone, and the test group received a solution of 0.003% (w/v) apocynin suspended in PBS twice a day at both eyes with 3 μL each. One week after the start of instillation, 1 μL of 0.1% sodium fluorescein solution was instilled into each of both eyes under isoflurane anesthesia, and the BUT test was performed under a blue filter using a slit lamp (Kowa Co., Ltd., SL-17) (FIG. 5).

The subject of assay [4] is dry eye model. As to the kind of experiment: Fluorescein staining score, benzalkonium chloride dry eye model, Comparative Study 1 (Example 4). In kind it is in vivo, mice. The method, then: After acclimating male C57BL6 mice (7 weeks old) to the experimental environment, those with almost uniform weight values and no eye abnormalities were divided into the following groups (n=4). • 7 weeks old/normal (non-dry eye group) • 7 weeks old/dry eye model+control (solvent eye drop) group • 7 weeks old/dry eye model+0.1% (w/v) apocynin eye drop group • 7 weeks old/dry eye model+0.5% (w/v) hyaluronic acid eye drop group A dry eye model was prepared by instilling the benzalkonium chloride solution at 3 μL each eye, twice a day for 8 days. After that, the control group received the 0.5% methylcellulose solution alone, and the test group received 0.1% (w/v) apocynin or 0.5% (w/v) hyaluronic acid suspended in the 0.5% methylcellulose solution twice a day for 15 days at 3 μL for each of both eyes. In Example 4, 1, 3, 6, 8, and 15 days after the start of instillation of the comparative test drug, 1 μL of the 0.1% fluorescein sodium solution was instilled into each of both eyes. Fluorescein-stained images were observed under a blue filter using a slit lamp (Kowa Co., Ltd., SL-17), and the degree of corneal epithelial damage was scored.

Assay [5] relates to dry eye model. As to the kind of experiment: Schirmer test (tear volume), dry eye model by erlotinib instillation (Example 1). The assay is classed as in vivo. The settings on record: 0.003% (w/v) apocynin in PBS, 3 μL twice daily, two weeks after start of instillation; erlotinib-instilled C57BL6 mice; FIG. 2. The text has this:
After acclimating male C57BL6 mice (7 weeks old) to the experimental environment, those with almost uniform body weight values and no eye abnormalities were divided into the following 3 groups (n=5). • 7 weeks old/normal (non-dry eye group) • 7 weeks old/dry eye model+control (solvent eye drop) group • 7 weeks old/dry eye model+apocynin eye drop group The dry eye model was created by daily instillation of an EGF receptor inhibitor (erlotinib) based on the method of Yang et al. In this model, administration of erlotinib causes dry eye symptoms such as shortened BUT, decreased tear volume, and corneal damage after 1 week of administration (Non-patent Document 3). After 20 μM of erlotinib was instilled for 2 weeks, the control group received PBS alone, and the test group received 3 μL of a suspension of 0.003% (w/v) apocynin in PBS twice daily. Two weeks after the start of instillation, 1 μL of 0.1% sodium fluorescein solution was instilled into each of both eyes under isoflurane anesthesia, and a BUT test was performed using a slit lamp (Kowa Co., Ltd., SL-17) (FIG. 1). […] Under anesthesia, the tip of a Schirmer test paper cut to 1 mm width was inserted into the conjunctival sac of the lower eyelid of the mouse, the test paper was removed after 5 minutes, the length of the wetted part was read in units of 0.5 mm, and the value was used as the tear volume (FIG. 2).

Regarding `COc1cc(C(C)=O)ccc1O` [apocynin, 4-hydroxy-3-methoxyacetophenone], in assay [1] (FIG. 7A), the “missing parts of meibomian glands (silhouette image of upper eyelid)” value is on record as “reduced the missing parts”. For the same compound, the “meibomian gland silhouette area (atrophy of the meibomian glands)” value in assay [1] (ImageJ, FIG. 7B) is “significantly inhibits atrophy of the meibomian glands”. Moreover, the figures for the “tear volume (Schirmer test)” value in assay [2] (0.003% apocynin eye drop), in assay [2] (0.03% apocynin eye drop) and in assay [5] were “significantly improved”, “significantly improved” and “improved”, respectively. Moreover, the “tear film breakup time (BUT)” value in assay [3] is given as “significantly improved”. In addition, the “fluorescein staining score (corneal damage)” value is on record as “significantly reduced” in assay [4] (3 days after start of instillation, compared to control, 0.1% (w/v) apocynin or 0.5% (w/v) hyaluronic acid twice a day, FIG. 9A) and “significant decrease” in assay [4] (15 days after start of instillation, 0.1% (w/v) apocynin twice a day, FIG. 9B).

The values are drawn from patent US20230338307A1, “PROPHYLACTIC AGENT, AMELIORATING AGENT, AND THERAPEUTIC AGENT FOR DRY EYE” (TSUBOTA LABORATORY, INC., priority 2020, published 2023).
